The test system of one assay is TRIM31 mRNA. In words: TRIM31 mRNA expression by RT-qPCR in PA/OA-induced L02 cells. The format is cell-based, human. The settings on record: for fold induction at 100 µM: Homo sapiens. On the procedure:
Palmitic acid/oleic acid (PA/OA) was used to induce the decrease of TRIM31 mRNA expression in human hepatocyte L02 cells. The cells were divided into control group and drug group. The drug group was treated with a concentration of 100 μmol/L compound, and the expression level of TRIM31 mRNA was detected by RT-qPCR. The expression level of TRIM31 mRNA in the drug group divided by that in the control group (Qdrug/Qctrl) was used to evaluate the ability of the compounds to promote TRIM31 expression. […]

Assay [1] has as its system Mice with a NASH phenotype (THTG-HFHF). The assay can be described thus: Fisetin in mice with a NASH phenotype (THTG-HFHF), liver mRNA levels. The class given is in vivo. The settings on record: 16 weeks. From the text: (§1) To further investigate the protective effects of Trim31 on liver steatosis, a nonalcoholic steatohepatitis (NASH) mice model was established in accordance with previous reports (Xu Min-Xuan,Tan Jun, et al., Journal of Hazardous Materials, 2020, 400: 123158). The THTG mice were then fed with HFHF diet (14% protein, 42% fat, 44% carbohydrates, 0.2% cholesterol and with a total of 42 g/L of carbohydreate mixed in drinking water at a ratio of 55% fructose and 45% sucrose by weight) for 16 weeks to produce phenotype of NASH. Also, the NTG mice used in this design as controls and were synchronously allowed to ad libitum access to this diet for 16 weeks.
(§2) Based on the effective protective effect of Trim31 in NAFLD, we accordingly investigated the therapeutic feasibility and effect of targeting the Trim31-Rhbdf2-MAP3K7 pathway in the development and progression of NASH. The THTG mice were then fed with an HFHF diet containing 14% protein, 42% fat, 44% carbohydrates, and 0.2% cholesterol and with a total of 42 g/L of carbohydrate mixed in drinking water at a ratio of 55% fructose and 45% sucrose by weight, for 16 weeks to generate mice with a NASH phenotype (THTG-HFHF).
Mice with a NASH phenotype (THTG-HFHF) were constructed according to the protocol described in Example 10. A control group (Ctrl), a NASH group (THTG), and three drug groups (FIS) were set up. The three drug groups (FIS) were treated with 20 mg/kg, 40 mg/kg and 80 mg/kg fisetin (FIS) by gavage.

For assay [2] the test system is unchanged. The assay can be described thus: Betacyanin in mice with a NASH phenotype (THTG-HFHF), liver protein expression. The format is in vivo. The settings on record: 0.2 g/kg mixed with feed, 16 weeks.
Source text: as §1, §2
Mice with a NASH phenotype (THTG-HFHF) were constructed according to the protocol described in Example 10. A control group (Ctrl), a NASH group (THTG), and a drug group (BCN) were set up. The drug group was fed with 0.2 g/kg betacyanin (BCN) mixed with feed.

The test system is the same in assay [3]. In words: Carminic acid in mice with a NASH phenotype (THTG-HFHF), liver mRNA and protein levels. The settings on record: 16 weeks. The format is in vivo.
Source text: as §1, §2
Mice with a NASH phenotype (THTG-HFHF) were constructed according to the protocol described in Example 10. The control group (Ctrl), NASH-THTG group (Fru), low dose group (CAL, 0.5% CA+Fru), high dose group (CAH, 1% CA+Fru) were set up. The drug group was treated with 0.5% and 1% carminic acid (CA) by gavage.

[4] abbreviates: 100 μmol/L compound, PA/OA-induced L02 cells, RT-qPCR, read-out: Qdrug/Qctrl (TRIM31 mRNA expression level, drug group divided by control group).
Setting [5] is: L02, read-out: Qdrug/Qctrl (TRIM31 mRNA expression level, drug group divided by control group).
Setting [6] is: 100 μmol/L compound, PA/OA-induced L02 cells, RT-qPCR.

Where two headings read alike, the source gives them in different places.

As to `O=c1c(O)c(-c2ccc(O)c(O)c2)oc2cc(O)ccc12` [Fisetin], in the assay with TRIM31 mRNA (setting [4]), the fold induction at 100 µM was 3.27. In addition, in assay [1] (20, 40 and 80 mg/kg by gavage), the “Collagen I mRNA level in liver” value was “significantly decreased”, the “Fibronectin mRNA level in liver” value was “significantly decreased”, the “TGF-β1 mRNA level in liver” value is on record as “significantly decreased” and the “TRIM31 mRNA level in liver” value is listed as “significantly increased”. Further, in assay [1] (20, 40 and 80 mg/kg by gavage), the “α-SMA mRNA level in liver” value is “significantly decreased”. Also, the “liver fibrosis and inflammation” value in assay [1] (gavage) is recorded as “significantly alleviated”. Also, in assay [1] (high dose group (80 mg/kg)), the “these indexes (fibrosis gene and TRIM31 mRNA levels) versus control group” value is reported as “close to the normal level of the control group”.

Turning to `COc1ccc(-c2oc3c(CC=C(C)C)c(O[C@@H]4O[C@H](CO)[C@@H](O)[C@H](O)[C@H]4O)cc(O)c3c(=O)c2O[C@@H]2O[C@@H](C)[C@H](O)[C@@H](O)[C@H]2O)cc1` [Icariin], the fold induction at 100 µM with TRIM31 mRNA (setting [4]) was 3.33.

Consider `COc1cc2c(c3c1c(=O)c1ccccc1n3C)C=CC(C)(C)O2` [Acronycine], for which the fold induction at 100 µM with TRIM31 mRNA (setting [4]) stood at 1.43.

Take `C=C(CO)C(=O)O[C@H]1CC(=C)[C@@H]2C[C@H](O)C(=C)[C@@H]2[C@H]2OC(=O)C(=C)[C@@H]21` [Cynaropicrin]: the fold induction at 100 µM in the assay with TRIM31 mRNA (setting [5]) was 3.35.

Turning to `O[C@H]1CCN2Cc3ccccc3N=C12` [Peganine], the “Qdrug/Qctrl (TRIM31 mRNA expression level, drug group divided by control group)” value in the assay with TRIM31 mRNA (setting [6]) amounted to 1.34 fold.

Consider `COc1cc(-c2oc3cc(O)cc(O)c3c(=O)c2O)ccc1O` [Isorhamnetin], for which the fold induction at 100 µM in the assay with TRIM31 mRNA (setting [5]) came to 2.77.

In the case of Betacyanin, in the assay on TRIM31 mRNA (setting [6]), the “Qdrug/Qctrl (TRIM31 mRNA expression level, drug group divided by control group)” value amounted to 3.14 fold. Also, in assay [2], the “Collagen I protein expression level in liver” value was “significantly reduced”, the “Keap1 protein expression level in liver” value is on record as “significantly reduced”, the “TGF-β1 protein expression level in liver” value was “significantly reduced” and the “TRIM31 protein expression in liver” value is listed as “increased”. Besides, the “liver fibrosis and inflammation” value in assay [2] is on record as “effectively alleviated”.

As to `COc1cc2c(c(OC)c1OC)-c1ccc(OC)c(=O)cc1[C@@H](NC(C)=O)CC2` [Colchicine, reference compound], in the assay with TRIM31 mRNA (setting [5]), the fold induction at 100 µM was found to be 1.32.

Take `COc1cc(C2Oc3cc([C@H]4Oc5cc(O)cc(O)c5C(=O)[C@@H]4O)ccc3OC2CO)ccc1O` (some centres unmarked) [Silibinin]: the fold induction at 100 µM in the assay with TRIM31 mRNA (setting [4]) was 3.12.

Turning to `O=c1c(O)c(-c2cc(O)c(O)c(O)c2)oc2cc(O)cc(O)c12` [Myricetin], the fold induction at 100 µM in the assay on TRIM31 mRNA (setting [5]) is 3.25.

Turning to `Cc1c(C(=O)O)c(O)cc2c1C(=O)c1c(O)c([C@@H]3O[C@H](CO)[C@@H](O)[C@H](O)[C@H]3O)c(O)c(O)c1C2=O` [Carminic acid], in the assay with TRIM31 mRNA (setting [4]), the fold induction at 100 µM stood at 2.78. Further, in assay [3] (0.5% and 1% CA by gavage), the “Collagen I mRNA level in liver” value is listed as “significantly decreased”, the “Keap1 protein in liver” value is “significantly decreased”, the “MMP-9 mRNA level in liver” value is given as “significantly decreased” and the “TGF-β1 mRNA level in liver” value was “significantly decreased”. In assay [3] (0.5% and 1% CA by gavage), the “TRIM31 protein expression in liver” value is recorded as “significantly increased” and the “α-SMA mRNA level in liver” value is on record as “significantly decreased”. In addition, the “liver fibrosis and inflammation” value in assay [3] (gavage) was “effectively alleviated”. Also, the “these indexes (fibrosis genes, Keap1, TRIM31) versus control group” value in assay [3] (high dose group (CAH, 1% CA)) is “close to the normal level of the control group”.

In the case of `CN(C)C(=N)N=C(N)N` [Metformin, reference compound], in the assay on TRIM31 mRNA (setting [5]), the fold induction at 100 µM was found to be 2.45.

With `CC[C@@]1(O)C(=O)OCc2c1cc1n(c2=O)Cc2cc3ccccc3nc2-1` [Camptothecin], in the assay on TRIM31 mRNA (setting [4]), the fold induction at 100 µM was 2.13.

On to `COc1ccc([C@@H]2CC(=O)c3c(O)cc(O)cc3O2)cc1O` [Hesperetin], for which the fold induction at 100 µM with TRIM31 mRNA (setting [5]) turned out to be 3.06.

Turning to `O=c1c(-c2ccc(O)cc2)coc2cc(O)cc(O)c12` [Genistein], the fold induction at 100 µM in the assay on TRIM31 mRNA (setting [4]) is 2.73.

On to `C[S+](CC[C@H](N)C(=O)[O-])C[C@H]1O[C@@H](n2cnc3c(N)ncnc32)[C@H](O)[C@@H]1O` (some centres unmarked) [Ademetionine, reference compound], for which the fold induction at 100 µM in the assay on TRIM31 mRNA (setting [4]) worked out at 2.55.

Take `O=c1cc(-c2ccc(O)cc2)oc2cc(O)cc(O)c12` [Apigenin]: in the assay with TRIM31 mRNA (setting [5]), the fold induction at 100 µM was 3.21.

As for `Nc1cccc2c1CN(C1CCC(=O)NC1=O)C2=O` (centres unmarked) [Lenalidomide, reference compound], in the assay with TRIM31 mRNA (setting [4]), the fold induction at 100 µM came out at 1.43.

For the molecule Punicosides, in the assay on TRIM31 mRNA (setting [6]), the “Qdrug/Qctrl (TRIM31 mRNA expression level, drug group divided by control group)” value is reported as 2.64 fold.

As for `COc1cc2c(cc1OC)[C@@H]1Cc3ccc(OC)c(OC)c3CN1CC2` [Tetrahydropalmatine], in the assay on TRIM31 mRNA (setting [5]), the fold induction at 100 µM was 1.76.

For `COc1ccc(-c2cc(=O)c3c(O)cc(O)cc3o2)cc1O` [Diosmetin], in the assay on TRIM31 mRNA (setting [4]), the fold induction at 100 µM was 3.41.

With `O=c1cc(-c2ccc(O)cc2)oc2cc(O)c(O)c(O)c12` [Scutellarein], the fold induction at 100 µM with TRIM31 mRNA (setting [5]) is 3.2.

For `COc1cc2nccc(Oc3ccc(NC(=O)NC4CC4)c(Cl)c3)c2cc1C(N)=O` [Lenvatinib, reference compound], in the assay on TRIM31 mRNA (setting [5]), the fold induction at 100 µM worked out at 2.75.

On to `Oc1cc(O)c2cc(O)c(-c3cc(O)c(O)c(O)c3)[o+]c2c1` [Delphinidin], for which the fold induction at 100 µM with TRIM31 mRNA (setting [4]) turned out to be 2.49.

`O=C1CCC[C@@H]2[C@H]3CCCN4CCC[C@@H](CN12)[C@@H]34` [Sophocarpidine]: the “Qdrug/Qctrl (TRIM31 mRNA expression level, drug group divided by control group)” value with TRIM31 mRNA (setting [6]) worked out at 1.30 fold.

In the case of `C[C@H](CCC(=O)O)[C@H]1CC[C@H]2[C@@H]3[C@@H](O)C[C@@H]4C[C@H](O)CC[C@]4(C)[C@H]3CC[C@]12C` [Ursodesoxycholic acid, reference compound], the fold induction at 100 µM in the assay with TRIM31 mRNA (setting [4]) worked out at 2.85.

Take `CNC(=O)c1cc(Oc2ccc(NC(=O)Nc3ccc(Cl)c(C(F)(F)F)c3)cc2)ccn1` [Sorafenib, reference compound]: in the assay on TRIM31 mRNA (setting [4]), the fold induction at 100 µM was 2.86.

Values taken from patent US20240293579A1, “Composition Comprising Trim31 and Rhbdf2 for Treatment of NAFLD/NASH” (CHONGQING MEIPULAN TECHNOLOGY CO., LTD, priority 2021, published 2024).
